From paper PMC5608804, “Stepwise Evolution Improves Identification of Diverse Peptides Binding to a Protein Target” (Scientific Reports, 2017)

Biological target: T1, streptavidin (Streptomyces avidinii, UniProt P22629)
T1 construct: purchased GE Healthcare (Little Chalfont, UK)
Assay: Cy5-streptavidin binding on HotSpot discovery array, 5-mer L-peptide library
Settings: for S/B: signal to background ratio
Outline: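 Array of 2,476,099 5-mer peptides (19 amino acids, no cysteine) with Gly-Ser linkers, probed overnight at 4 °C with 0.5 µg/ml Cy5-streptavidin in Tris pH 7.4 buffer containing casein or BSA plus Tween-20. Cy5 fluorescence read at 635 nm; peptides selected by signal-to-background >4 across three arrays.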

[1] = 5-mer L-peptide library array, Cy5-streptavidin
[2] = 5-mer L-peptide library, from the average of three arrays
[3] = 5-mer L-peptide library array, Cy5-streptavidin, from average of three arrays
[4] = 5-mer L-peptide library array, Cy5-streptavidin, from the average of three arrays

T1 sequence (P22629 25-183): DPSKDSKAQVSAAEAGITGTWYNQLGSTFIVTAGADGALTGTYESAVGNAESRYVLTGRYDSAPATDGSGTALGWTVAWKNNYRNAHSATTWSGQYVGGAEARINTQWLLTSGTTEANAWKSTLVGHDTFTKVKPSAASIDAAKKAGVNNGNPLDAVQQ

Row | Substance | S/B [1] | S/B (signal to background ratio) [3] | also measured
1 | HPQQH | 12.2 | – | –
2 | HPQQK | – | – | S/B (signal to background ratio) [2]: 4.4
3 | HPQQN | – | 23.0 | –
4 | HPQQQ | 10.8 | – | –
5 | HPQQS | – | 19.2 | –
6 | HPQQW | 16.8 | – | –
7 | HPQRD | 10.7 | – | –
8 | HPQRF | 7.3 | – | –
9 | HPQRG | – | 33.4 | –
10 | HPQRH | 8.8 | – | –
11 | HPQRI | – | – | S/B (signal to background ratio) [2]: 5.0
12 | HPQRN | 17.7 | – | –
13 | HPQRP | 9.4 | – | –
14 | HPQRQ | 9.1 | – | –
15 | HPQRS | 15.9 | – | –
16 | HPQRV | 5.3 | – | –
17 | HPQRW | – | 30.7 | –
18 | HPQSF | 13.1 | – | –
19 | HPQSG | – | – | S/B (signal to background ratio) [4]: 90.1
20 | HPQSH | 12.3 | – | –
21 | HPQSI | 7.3 | – | –
22 | HPQSK | – | – | S/B (signal to background ratio) [2]: 4.7
23 | HPQSS | – | 28.2 | –
24 | HPQST | 12.9 | – | –
25 | HPQSW | 18.3 | – | –
26 | HPQTA | 10.4 | – | –

Row | Substance | S/B [1] | S/B (signal to background ratio) [3] | also measured
27 | HPQTG | – | 28.1 | –
28 | HPQTQ | 5.4 | – | –
29 | HPQTV | – | – | S/B (signal to background ratio) [2]: 4.3
30 | HPQVA | – | – | S/B (signal to background ratio) [4]: 67.2
31 | HPQVD | – | 33.5 | –
32 | HPQVE | – | 19.8 | –
33 | HPQVF | – | 56.9 | –
34 | HPQVG | – | – | S/B (signal to background ratio) [4]: 114.3
35 | HPQVH | – | 57.8 | –
36 | HPQVN | – | – | S/B (signal to background ratio) [4]: 63.9
37 | HPQVP | – | – | S/B (signal to background ratio) [4]: 62.1
38 | HPQVQ | – | 49.2 | –
39 | HPQVR | – | 28.4 | –
40 | HPQVS | – | – | S/B (signal to background ratio) [4]: 77.3
41 | HPQVY | – | – | S/B (signal to background ratio) [4]: 64.1
42 | HPQWA | 8.4 | – | –
43 | HPQWG | – | 26.9 | –
44 | HPQWQ | 5.5 | – | –
45 | HPQYA | – | 20.2 | –
46 | HPQYD | 8.0 | – | –
47 | HPQYG | – | 55.1 | –
48 | HPQYK | 6.3 | – | –
49 | HPQYL | – | – | S/B (signal to background ratio) [2]: 4.7
50 | HPQYN | – | – | S/B (signal to background ratio) [4]: 66.1
51 | HPQYQ | 15.5 | – | –
52 | HPQYR | 7.0 | – | –

Row | Substance | S/B [1] | S/B (signal to background ratio) [3] | also measured
53 | HPQYW | 5.7 | – | –
54 | HPQYY | 9.4 | – | –
55 | HPRQF | – | – | S/B (signal to background ratio) [2]: 4.3
56 | HPRWG | – | – | S/B (signal to background ratio) [2]: 4.2
57 | HPRWM | – | – | S/B (signal to background ratio) [2]: 4.5
58 | HPTPW | 15.1 | – | –
59 | HPVPP | 12.4 | – | –
60 | HPWRF | 7.0 | – | –
61 | HPWRH | – | – | S/B (signal to background ratio) [2]: 5.0
62 | HPWRN | – | – | S/B (signal to background ratio) [2]: 4.7
63 | HPWRS | – | – | S/B (signal to background ratio) [2]: 4.0
64 | HPWRT | – | – | S/B (signal to background ratio) [2]: 4.4
65 | HPWRY | 11.4 | – | –
66 | HQHPM | – | 47.3 | –
67 | HQHPQ | – | 145.4 | –
68 | HRHPM | – | – | S/B (signal to background ratio) [4]: 61.8
69 | HRHPQ | – | 149.4 | –
70 | HSHPM | – | 54.9 | –
71 | HSHPQ | – | 136.9 | –
72 | HTHPQ | – | 139.1 | –
73 | HVHPQ | – | – | S/B (signal to background ratio) [4]: 105.7
74 | HWHPQ | – | 166.7 | –
75 | HYHPM | – | – | S/B (signal to background ratio) [4]: 88.3
76 | HYHPQ | – | 184.3 | –
77 | IAAYH [L-amino acid 5-mer array peptide] | – | – | S/B (signal to background ratio) [2]: 4.8; S/B (signal to background ratio) (average of three arrays, L-peptide 5-mer library): 4.8
78 | IAHPM | – | 46.1 | –

Row | Substance | S/B [1] | S/B (signal to background ratio) [3] | also measured
79 | IAHPQ | – | 136.2 | –
80 | IDHPQ | – | – | S/B (signal to background ratio) [4]: 88.2
81 | IEHPQ | – | – | S/B (signal to background ratio) [4]: 67.6
82 | IFHPM | – | – | S/B (signal to background ratio) [4]: 60.0
83 | IFHPQ | – | 166.8 | –
84 | IGHPM | – | – | S/B (signal to background ratio) [4]: 72.3
85 | IGHPQ | – | 174.2 | –
86 | IHPMA | – | – | S/B (signal to background ratio) [4]: 70.9
87 | IHPMM | 6.6 | – | –
88 | IHPQA | – | 150.7 | –
89 | IHPQD | 10.4 | – | –
90 | IHPQF | – | 148.4 | –
91 | IHPQG | – | – | S/B (signal to background ratio) [4]: 85.9
92 | IHPQK | 11.6 | – | –
93 | IHPQN | – | 128.3 | –
94 | IHPQQ | – | 32.5 | –
95 | IHPQT | 13.6 | – | –
96 | IHPQW | 12.0 | – | –
97 | IKHPM | – | 19.0 | –
98 | ILHPQ | – | 121.2 | –
99 | IMHPM | – | 35.1 | –
100 | IPHPM | – | 35.9 | –
101 | IPHPQ | – | 167.5 | –
102 | IQHPM | – | 50.9 | –
103 | IQHPQ | – | 139.6 | –
104 | IRHPM | – | – | S/B (signal to background ratio) [4]: 63.6

Row | Substance | S/B [1] | S/B (signal to background ratio) [3] | also measured
105 | IRHPQ | – | 165.9 | –
106 | ISHPQ | – | 142.0 | –
107 | ITHPM | – | 41.5 | –
108 | IVHPM | – | 23.5 | –
109 | IVHPQ | – | – | S/B (signal to background ratio) [4]: 94.3
110 | IWHPQ | – | 174.8 | –
111 | IYHPQ | – | 169.4 | –
112 | KAHPQ | – | – | S/B (signal to background ratio) [4]: 77.0
113 | KFHPM | – | 29.8 | –
114 | KFHPQ | – | – | S/B (signal to background ratio) [4]: 81.9
115 | KGHPQ | – | – | S/B (signal to background ratio) [4]: 65.1
116 | KHHPM | – | 29.1 | –
117 | KHHPQ | – | – | S/B (signal to background ratio) [4]: 96.3
118 | KHPMA | – | 27.5 | –
119 | KHPMF | – | – | S/B (signal to background ratio) [2]: 4.5
120 | KHPMH | – | – | S/B (signal to background ratio) [2]: 5.1
121 | KHPMM | – | – | S/B (signal to background ratio) [2]: 4.9
122 | KHPMN | 5.9 | – | –
123 | KHPMS | 8.8 | – | –
124 | KHPMV | 6.9 | – | –
125 | KHPMY | 6.0 | – | –
126 | KHPQA | – | – | S/B (signal to background ratio) [4]: 92.8
127 | KHPQF | – | 52.9 | –
128 | KHPQG | – | – | S/B (signal to background ratio) [4]: 73.1
129 | KHPQN | – | – | S/B (signal to background ratio) [4]: 64.6
